Each block holds one compound with its values, some of them ahead of it.
Experiments:
[1] = system: Blood; assay: Antiinflammatory activity in human whole blood assessed as inhibition of LPS-induced TNFalpha secretion by ELISA; type: functional, tissue-based
[2] = target: T1, Disintegrin and metalloproteinase domain-containing protein 17 (Homo sapiens, UniProt P78536); assay: Inhibition of human catalytic domain of TACE assessed as inhibit the cleavage of the substrate by fluorescence-based FRET assay
T1 sequence (P78536 whole entry, the tested form may be a part): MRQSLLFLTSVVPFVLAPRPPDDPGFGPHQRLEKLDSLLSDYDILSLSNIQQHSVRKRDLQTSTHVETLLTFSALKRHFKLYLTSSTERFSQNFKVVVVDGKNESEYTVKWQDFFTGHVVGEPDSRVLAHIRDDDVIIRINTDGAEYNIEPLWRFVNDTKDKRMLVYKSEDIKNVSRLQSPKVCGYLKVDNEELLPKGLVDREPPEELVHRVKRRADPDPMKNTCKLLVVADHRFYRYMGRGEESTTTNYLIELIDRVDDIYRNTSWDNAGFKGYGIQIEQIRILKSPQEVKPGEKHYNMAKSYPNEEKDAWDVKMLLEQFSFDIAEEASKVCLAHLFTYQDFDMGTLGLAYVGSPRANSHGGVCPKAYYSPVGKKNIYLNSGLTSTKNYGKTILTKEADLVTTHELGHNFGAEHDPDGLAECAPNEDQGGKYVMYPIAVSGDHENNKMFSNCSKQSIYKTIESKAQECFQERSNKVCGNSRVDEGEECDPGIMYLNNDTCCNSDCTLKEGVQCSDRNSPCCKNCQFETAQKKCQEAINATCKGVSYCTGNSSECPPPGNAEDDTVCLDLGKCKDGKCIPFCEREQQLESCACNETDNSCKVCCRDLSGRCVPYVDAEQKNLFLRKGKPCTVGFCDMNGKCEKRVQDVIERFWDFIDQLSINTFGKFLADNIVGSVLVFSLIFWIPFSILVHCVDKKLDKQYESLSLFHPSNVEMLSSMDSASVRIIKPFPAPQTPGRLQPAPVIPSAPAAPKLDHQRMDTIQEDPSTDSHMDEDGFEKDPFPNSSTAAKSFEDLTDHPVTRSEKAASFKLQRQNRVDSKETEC

[3] = target: T2, Disintegrin and metalloproteinase domain-containing protein 10 (Homo sapiens, UniProt O14672); assay: Inhibition of ADAM10 (unknown origin) using fluorescent substrate by fluorescence-based FRET assay
T2 sequence (O14672 whole entry): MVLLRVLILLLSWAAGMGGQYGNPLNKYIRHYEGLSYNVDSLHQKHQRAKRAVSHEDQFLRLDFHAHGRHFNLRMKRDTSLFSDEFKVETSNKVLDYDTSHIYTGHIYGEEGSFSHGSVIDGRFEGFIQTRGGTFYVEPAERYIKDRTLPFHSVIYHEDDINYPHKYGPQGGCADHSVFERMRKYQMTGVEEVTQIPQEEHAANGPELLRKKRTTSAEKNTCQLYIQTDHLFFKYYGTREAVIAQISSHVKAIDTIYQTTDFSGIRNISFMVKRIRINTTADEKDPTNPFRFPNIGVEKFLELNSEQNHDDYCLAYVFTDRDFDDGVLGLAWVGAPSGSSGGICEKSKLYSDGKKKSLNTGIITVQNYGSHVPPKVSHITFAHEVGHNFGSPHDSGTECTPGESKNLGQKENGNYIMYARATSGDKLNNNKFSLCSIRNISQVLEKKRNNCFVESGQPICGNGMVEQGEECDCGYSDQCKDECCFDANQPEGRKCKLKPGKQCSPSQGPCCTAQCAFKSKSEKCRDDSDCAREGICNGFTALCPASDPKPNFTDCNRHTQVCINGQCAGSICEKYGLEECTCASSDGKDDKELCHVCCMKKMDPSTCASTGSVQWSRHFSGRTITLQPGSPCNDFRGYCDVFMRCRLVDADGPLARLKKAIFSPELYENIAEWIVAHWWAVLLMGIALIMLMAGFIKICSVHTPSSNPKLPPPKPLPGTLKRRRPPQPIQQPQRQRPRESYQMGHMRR

[4] = target: T3, Interstitial collagenase (Homo sapiens, UniProt P03956); assay: Inhibition of MMP1 (unknown origin) by fluorescence-based FRET assay
T3 sequence (P03956 whole entry): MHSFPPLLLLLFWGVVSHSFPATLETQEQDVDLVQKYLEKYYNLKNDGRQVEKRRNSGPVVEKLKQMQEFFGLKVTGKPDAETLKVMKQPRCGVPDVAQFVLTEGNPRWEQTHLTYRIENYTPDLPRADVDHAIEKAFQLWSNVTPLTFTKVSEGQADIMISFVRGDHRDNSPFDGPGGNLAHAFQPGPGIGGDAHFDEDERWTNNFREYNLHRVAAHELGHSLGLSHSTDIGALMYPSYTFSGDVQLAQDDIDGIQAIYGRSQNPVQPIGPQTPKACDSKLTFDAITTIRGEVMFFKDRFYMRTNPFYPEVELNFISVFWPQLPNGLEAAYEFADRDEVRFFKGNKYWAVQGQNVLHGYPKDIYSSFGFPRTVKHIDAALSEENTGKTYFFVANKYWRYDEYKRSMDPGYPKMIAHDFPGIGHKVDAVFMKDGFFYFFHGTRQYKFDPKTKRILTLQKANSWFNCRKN

[5] = target: 72 kDa type IV collagenase (Homo sapiens, UniProt P08253); assay: Inhibition of MMP2 (unknown origin) by fluorescence-based FRET assay
Sequence of 72 kDa type IV collagenase (P08253 whole entry): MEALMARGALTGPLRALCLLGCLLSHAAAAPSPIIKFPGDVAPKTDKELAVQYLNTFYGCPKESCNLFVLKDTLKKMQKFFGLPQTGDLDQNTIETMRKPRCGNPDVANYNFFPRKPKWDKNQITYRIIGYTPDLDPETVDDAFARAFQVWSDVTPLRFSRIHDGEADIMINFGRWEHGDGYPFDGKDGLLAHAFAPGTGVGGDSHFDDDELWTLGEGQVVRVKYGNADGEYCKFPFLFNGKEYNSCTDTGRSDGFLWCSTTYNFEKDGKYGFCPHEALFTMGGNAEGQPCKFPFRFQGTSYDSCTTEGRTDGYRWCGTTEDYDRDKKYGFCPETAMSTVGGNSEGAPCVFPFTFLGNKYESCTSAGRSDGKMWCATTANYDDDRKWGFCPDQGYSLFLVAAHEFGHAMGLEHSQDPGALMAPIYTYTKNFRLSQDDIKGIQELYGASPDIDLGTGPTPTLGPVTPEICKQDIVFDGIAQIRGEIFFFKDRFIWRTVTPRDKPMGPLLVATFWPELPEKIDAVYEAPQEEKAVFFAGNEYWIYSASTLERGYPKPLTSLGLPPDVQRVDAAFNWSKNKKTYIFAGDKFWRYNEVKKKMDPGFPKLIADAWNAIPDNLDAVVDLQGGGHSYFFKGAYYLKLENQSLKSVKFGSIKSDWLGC

[6] = target: Stromelysin-1 (Homo sapiens, UniProt P08254); assay: Inhibition of MMP3 (unknown origin) by fluorescence-based FRET assay
Sequence of Stromelysin-1 (P08254 whole entry): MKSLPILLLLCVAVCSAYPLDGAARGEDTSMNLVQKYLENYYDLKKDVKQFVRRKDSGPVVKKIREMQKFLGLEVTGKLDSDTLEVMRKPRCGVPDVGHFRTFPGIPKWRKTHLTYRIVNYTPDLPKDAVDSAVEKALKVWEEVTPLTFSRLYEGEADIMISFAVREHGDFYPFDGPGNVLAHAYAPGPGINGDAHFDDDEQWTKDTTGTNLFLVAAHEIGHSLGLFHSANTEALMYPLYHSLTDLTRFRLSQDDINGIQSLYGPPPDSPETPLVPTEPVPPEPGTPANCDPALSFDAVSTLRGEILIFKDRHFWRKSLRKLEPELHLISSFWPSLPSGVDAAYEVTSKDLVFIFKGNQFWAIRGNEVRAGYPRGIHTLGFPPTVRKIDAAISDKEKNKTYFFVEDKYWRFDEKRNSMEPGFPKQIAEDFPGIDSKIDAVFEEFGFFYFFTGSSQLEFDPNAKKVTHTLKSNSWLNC

[7] = target: T4, Matrilysin (Homo sapiens, UniProt P09237); assay: Inhibition of MMP7 (unknown origin) by fluorescence-based FRET assay
T4 sequence (P09237 whole entry): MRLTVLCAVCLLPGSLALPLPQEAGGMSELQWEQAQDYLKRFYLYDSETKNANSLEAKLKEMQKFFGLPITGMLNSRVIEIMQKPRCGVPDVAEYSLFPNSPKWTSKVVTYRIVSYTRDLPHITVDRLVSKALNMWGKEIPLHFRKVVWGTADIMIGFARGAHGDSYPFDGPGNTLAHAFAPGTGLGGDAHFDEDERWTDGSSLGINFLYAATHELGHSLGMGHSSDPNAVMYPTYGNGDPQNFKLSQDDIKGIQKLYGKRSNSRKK

[8] = target: Neutrophil collagenase (Homo sapiens, UniProt P22894); assay: Inhibition of MMP8 (unknown origin) by fluorescence-based FRET assay
Sequence of Neutrophil collagenase (P22894 whole entry): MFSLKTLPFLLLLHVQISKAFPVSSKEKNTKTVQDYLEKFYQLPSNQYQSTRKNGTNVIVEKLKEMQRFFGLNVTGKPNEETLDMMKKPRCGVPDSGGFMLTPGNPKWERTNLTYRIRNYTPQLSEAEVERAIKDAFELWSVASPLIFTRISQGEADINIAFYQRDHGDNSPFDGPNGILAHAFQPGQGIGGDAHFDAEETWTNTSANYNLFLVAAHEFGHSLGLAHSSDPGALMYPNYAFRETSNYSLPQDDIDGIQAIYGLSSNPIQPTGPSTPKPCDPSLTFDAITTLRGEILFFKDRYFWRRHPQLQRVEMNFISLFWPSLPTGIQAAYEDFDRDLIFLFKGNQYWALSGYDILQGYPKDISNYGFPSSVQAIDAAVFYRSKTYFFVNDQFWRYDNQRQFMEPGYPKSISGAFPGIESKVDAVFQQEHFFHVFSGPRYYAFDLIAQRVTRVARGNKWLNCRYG

[9] = target: Matrix metalloproteinase-9 (Homo sapiens, UniProt P14780); assay: Inhibition of MMP9 (unknown origin) by fluorescence-based FRET assay
Sequence of Matrix metalloproteinase-9 (P14780 whole entry): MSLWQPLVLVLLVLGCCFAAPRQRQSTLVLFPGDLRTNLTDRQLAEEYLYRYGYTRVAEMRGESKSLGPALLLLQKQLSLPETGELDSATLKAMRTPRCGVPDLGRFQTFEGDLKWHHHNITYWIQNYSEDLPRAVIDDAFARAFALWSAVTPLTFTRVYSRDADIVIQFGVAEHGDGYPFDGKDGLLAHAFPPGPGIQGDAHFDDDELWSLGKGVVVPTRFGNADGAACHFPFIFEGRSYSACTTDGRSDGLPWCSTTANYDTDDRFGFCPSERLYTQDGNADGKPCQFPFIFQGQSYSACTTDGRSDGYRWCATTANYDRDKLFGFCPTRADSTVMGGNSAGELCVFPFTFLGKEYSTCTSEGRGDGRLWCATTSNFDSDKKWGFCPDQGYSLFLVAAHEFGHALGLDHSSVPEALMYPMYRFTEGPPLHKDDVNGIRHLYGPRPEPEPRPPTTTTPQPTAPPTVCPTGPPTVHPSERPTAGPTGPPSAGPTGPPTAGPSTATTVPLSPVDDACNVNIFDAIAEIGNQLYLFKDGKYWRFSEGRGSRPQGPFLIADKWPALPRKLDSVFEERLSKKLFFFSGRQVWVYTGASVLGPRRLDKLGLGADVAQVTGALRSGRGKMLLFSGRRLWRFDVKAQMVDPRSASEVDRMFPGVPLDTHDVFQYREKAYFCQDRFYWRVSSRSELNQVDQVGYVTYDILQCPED

[10] = target: Collagenase 3 (Homo sapiens, UniProt P45452); assay: Inhibition of MMP13 (unknown origin) by fluorescence-based FRET assay
[11] = target: Matrix metalloproteinase-14 (Homo sapiens, UniProt P50281); assay: Inhibition of MMP14 (unknown origin) by fluorescence-based FRET assay
[12] = target: T1, Disintegrin and metalloproteinase domain-containing protein 17; assay: Ratio of IC50 for human catalytic domain of TACE to IC50 for ADAM10 (unknown origin)
[13] = target: T1, Disintegrin and metalloproteinase domain-containing protein 17; assay: Ratio of IC50 for human catalytic domain of TACE to IC50 for MMP1 (unknown origin)
[14] = target: T1, Disintegrin and metalloproteinase domain-containing protein 17; assay: Ratio of IC50 for human catalytic domain of TACE to IC50 for MMP2 (unknown origin)
[15] = target: T1, Disintegrin and metalloproteinase domain-containing protein 17; assay: Ratio of IC50 for human catalytic domain of TACE to IC50 for MMP3 (unknown origin)
[16] = target: T1, Disintegrin and metalloproteinase domain-containing protein 17; assay: Ratio of IC50 for human catalytic domain of TACE to IC50 for MMP7 (unknown origin)
[17] = target: T1, Disintegrin and metalloproteinase domain-containing protein 17; assay: Ratio of IC50 for human catalytic domain of TACE to IC50 for MMP8 (unknown origin)
[18] = target: T1, Disintegrin and metalloproteinase domain-containing protein 17; assay: Ratio of IC50 for human catalytic domain of TACE to IC50 for MMP9 (unknown origin)
[19] = target: T1, Disintegrin and metalloproteinase domain-containing protein 17; assay: Ratio of IC50 for human catalytic domain of TACE to IC50 for MMP13 (unknown origin)
[20] = target: T1, Disintegrin and metalloproteinase domain-containing protein 17; assay: Ratio of IC50 for human catalytic domain of TACE to IC50 for MMP14 (unknown origin)
[21] = system: Mus musculus; assay: Antiinflammatory activity in po dosed Swiss Albino mouse assessed as inhibition of LPS-induced TNFalpha secretion in blood treated 0.5 hrs before LPS and measured after 1 hr of LPS stimulus by ELISA; type: functional

Structure (SMILES): CC(C)C[C@H](C(=O)NO)N1CC[C@@](N)(c2ccc(OCc3cc(-c4ccccc4)nc4ccccc34)cc2)C1=O
IC50 [1]: 3060 nM

Structure (SMILES): CC(C)C[C@H](C(=O)NO)N1CC[C@@](N)(c2ccc(OCc3cc(-c4ccc(F)cc4)nc4ccccc34)cc2)C1=O
IC50 [1]: 290 nM

Structure (SMILES): CC(C)C[C@H](C(=O)NO)N1CC[C@@](N)(c2ccc(OCc3cc(-c4ccc(Cl)cc4)nc4ccccc34)cc2)C1=O
IC50 [1]: 286 nM

Structure (SMILES): CC(C)C[C@H](C(=O)NO)N1CC[C@@](N)(c2ccc(OCc3cc(CCOC(C)C)nc4ccccc34)cc2)C1=O
IC50 [1]: 130 nM

Structure (SMILES): Cc1ccc(-c2cc(COc3ccc([C@]4(N)CCN([C@H](CC(C)C)C(=O)NO)C4=O)cc3)c3ccccc3n2)cc1
IC50 [1]: 2900 nM

Structure (SMILES): CC(C)C[C@H](C(=O)NO)N1CC[C@@](N)(c2ccc(OCc3cc(C4CCCCC4)nc4ccccc34)cc2)C1=O
IC50 [1]: 177 nM

Further lines, with some results ahead:

IC50 [1]: 123 nM
Structure (SMILES): CC(C)C[C@H](C(=O)NO)N1CC[C@@](N)(c2ccc(OCc3cc(COC(C)C)nc4ccccc34)cc2)C1=O

IC50 [1]: 401 nM
Structure (SMILES): COc1cc(COc2ccc([C@]3(N)CCN([C@H](CC(C)C)C(=O)NO)C3=O)cc2)c2ccccc2n1

IC50 [1]: 11 nM | IC50 [2]: 2.1 nM | IC50 [3]: 1210 nM | IC50 [4]: 1130 nM | IC50 [5]: 1170 nM | IC50 [6]: 1080 nM | IC50 [7]: 1240 nM | IC50 [8]: 1010 nM | IC50 [9]: 1160 nM | IC50 [10]: 1230 nM | IC50 [11]: 1070 nM | Ratio IC50 [12]: > 500 | Ratio IC50 [13]: > 500 | Ratio IC50 [14]: > 500 | Ratio IC50 [15]: > 500 | Ratio IC50 [16]: > 500 | Ratio IC50 [17]: > 500 | Ratio IC50 [18]: > 500 | Ratio IC50 [19]: > 500 | Ratio IC50 [20]: > 500
Structure (SMILES): COCc1cc(COc2ccc([C@]3(N)CCN([C@H](CC(C)C)C(=O)NO)C3=O)cc2)c2ccccc2n1
ED50 [21]: 7.2 mg/kg

IC50 [1]: 450 nM
Structure (SMILES): CC(C)C[C@H](C(=O)NO)N1CC[C@@](N)(c2ccc(OCc3cc(Cl)nc4ccccc34)cc2)C1=O

IC50 [1]: 98 nM
Structure (SMILES): COCc1cc(COc2ccc([C@]3(N)CCN([C@H](C)C(=O)NO)C3=O)cc2)c2ccccc2n1

Reference: ChEMBL document CHEMBL3217463, “Design, synthesis and biological evaluation of -lactam hydroxamate based TACE inhibitors” (Medchemcomm, 2011)
